Measurements as given in BindingDB's records for doi:10.1021/acs.biochem.7b00178 (University of Waterloo, 2017).

Experiments:
[1] = target: Phosphoenolpyruvate carboxykinase, cytosolic [GTP] [H477R] (Rat, UniProt P07379, H477R); assay: PEPCK Inhibition Assay
Procedure: (§1) The inhibition of H477R PEPCK by β-sulfopyruvate (βSP), oxalate, and GMPPCP was conducted in the direction of PEP synthesis (OAA → PEP). The Michaelis constant of OAA was determined at various fixed concentrations of β-SP (0−100 μM) or oxalate (0−1000 μM), and the Michaelis constant for GTP was determined at various fixed concentrations of GMPPCP (0-800 μM).

[2] = target: T1, Phosphoenolpyruvate carboxykinase, cytosolic [GTP] (Rattus norvegicus, UniProt P07379); assay: PEPCK Inhibition Assay
T1 sequence (P07379 whole entry): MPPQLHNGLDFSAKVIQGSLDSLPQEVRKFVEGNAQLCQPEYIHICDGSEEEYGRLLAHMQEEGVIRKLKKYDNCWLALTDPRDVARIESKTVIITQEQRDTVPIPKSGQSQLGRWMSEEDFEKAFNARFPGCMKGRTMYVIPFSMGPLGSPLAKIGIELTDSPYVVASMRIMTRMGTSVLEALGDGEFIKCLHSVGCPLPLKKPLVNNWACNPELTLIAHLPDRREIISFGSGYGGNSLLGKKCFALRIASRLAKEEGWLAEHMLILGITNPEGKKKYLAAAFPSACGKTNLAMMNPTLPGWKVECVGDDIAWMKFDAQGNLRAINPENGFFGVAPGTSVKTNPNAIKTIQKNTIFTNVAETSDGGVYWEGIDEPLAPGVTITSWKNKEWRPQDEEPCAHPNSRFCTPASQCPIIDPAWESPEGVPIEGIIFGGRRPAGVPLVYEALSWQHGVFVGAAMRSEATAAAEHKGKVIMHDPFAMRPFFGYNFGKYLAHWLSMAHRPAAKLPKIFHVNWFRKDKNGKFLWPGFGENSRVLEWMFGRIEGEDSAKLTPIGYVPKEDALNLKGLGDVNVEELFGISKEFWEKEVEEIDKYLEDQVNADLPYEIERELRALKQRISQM
Procedure: as §1

Phosphoenolpyruvate carboxykinase, cytosolic [GTP] [H477R], sequence (P07379 whole entry H477R): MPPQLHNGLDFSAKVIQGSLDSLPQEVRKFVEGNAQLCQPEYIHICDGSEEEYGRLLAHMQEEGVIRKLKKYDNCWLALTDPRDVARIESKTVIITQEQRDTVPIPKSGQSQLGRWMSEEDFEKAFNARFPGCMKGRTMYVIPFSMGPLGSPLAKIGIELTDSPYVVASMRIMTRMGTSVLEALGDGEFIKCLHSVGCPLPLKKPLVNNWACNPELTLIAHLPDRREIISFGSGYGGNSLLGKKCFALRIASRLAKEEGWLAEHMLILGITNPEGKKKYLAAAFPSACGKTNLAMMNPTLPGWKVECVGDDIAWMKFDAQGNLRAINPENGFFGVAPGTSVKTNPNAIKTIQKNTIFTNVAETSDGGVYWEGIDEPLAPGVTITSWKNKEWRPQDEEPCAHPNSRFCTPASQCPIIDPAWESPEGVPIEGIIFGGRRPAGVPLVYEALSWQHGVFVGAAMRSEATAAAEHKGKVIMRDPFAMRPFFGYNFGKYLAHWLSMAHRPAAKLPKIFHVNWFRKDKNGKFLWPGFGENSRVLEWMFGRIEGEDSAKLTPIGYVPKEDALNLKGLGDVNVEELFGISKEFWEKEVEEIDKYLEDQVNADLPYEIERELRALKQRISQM

| Ki [1] [µM] | SMILES | Ki [2] [µM] |
| --- | --- | --- |
| 289 | C=C(OP(=O)(O)O)C(=O)O [PHOSPHOENOLPYRUVATE] |  |
| 37 | O=C(O)C(=O)CS(=O)(=O)O [β-Sulfopyruvate] |  |
| 441 | O=C(O)CC(=O)C(=O)O [keto-Oxaloacetate] |  |

| SMILES | Ki [1] [µM] | Ki [2] [µM] |
| --- | --- | --- |
| Nc1nc(O)c2ncn([C@@H]3O[C@H](COP(=O)(O)OP(=O)(O)C[P+]([O-])(O)O)[C@@H](O)[C@H]3O)c2n1 [β,γ-methyleneguanosine 5′-triphosphate] | 696 | 150 |
